Measurements taken from US20250084039A1, “4-SUBSTITUTED AMINOISOQUINOLINE DERIVATIVES” (Purdue Research Foundation, priority 2016, published 2025).

Tests used:
[1] = biological target: FLT3 (Homo sapiens (Human), UniProt P36888); test: Inhibition of kinase enzymatic activity (IC50); type: biochemical; conditions: in vitro
[2] = biological target: FLT3 ITD (Homo sapiens, UniProt P36888)
[3] = Liver microsomal stability assay; type: in vitro ADME, mouse; conditions: compared to the other analogs
[4] = test system: FLT3 phosphorylation; test: Western blot in MV4-11; type: cell-based, human
Procedure: Total protein extracts were prepared using RIPA buffer (SIGMA) supplemented with Complete Mini™ protease inhibitor and PHOStop™ phosphatase inhibitors (Roche). […] The membrane was blocked with 5% dry milk in 1×TBS/0.1% Tween 20 (TBST) for at least 1 h at room temperature and incubated with human specific primary antibodies: FLT3, Phospho-FLT3, c-Myc (Cell Signaling Technologies), KRAS (Santa Cruz), or mouse anti-β-actin (SIGMA) overnight at 4° C. The membrane was washed 3 times in TBST and incubated with a horseradish peroxidase-conjugated secondary anti-rabbit or anti-mouse antibody (Cell Signaling Technologies) for 1 h at room temperature. Blots were again washed and the signal was detected with SuperSignal West Femto Chemiluminescent Substrate (Pierce) and exposed to HyBlot CL® autoradiography film (Denville).

FLT3, sequence (P36888 27-993): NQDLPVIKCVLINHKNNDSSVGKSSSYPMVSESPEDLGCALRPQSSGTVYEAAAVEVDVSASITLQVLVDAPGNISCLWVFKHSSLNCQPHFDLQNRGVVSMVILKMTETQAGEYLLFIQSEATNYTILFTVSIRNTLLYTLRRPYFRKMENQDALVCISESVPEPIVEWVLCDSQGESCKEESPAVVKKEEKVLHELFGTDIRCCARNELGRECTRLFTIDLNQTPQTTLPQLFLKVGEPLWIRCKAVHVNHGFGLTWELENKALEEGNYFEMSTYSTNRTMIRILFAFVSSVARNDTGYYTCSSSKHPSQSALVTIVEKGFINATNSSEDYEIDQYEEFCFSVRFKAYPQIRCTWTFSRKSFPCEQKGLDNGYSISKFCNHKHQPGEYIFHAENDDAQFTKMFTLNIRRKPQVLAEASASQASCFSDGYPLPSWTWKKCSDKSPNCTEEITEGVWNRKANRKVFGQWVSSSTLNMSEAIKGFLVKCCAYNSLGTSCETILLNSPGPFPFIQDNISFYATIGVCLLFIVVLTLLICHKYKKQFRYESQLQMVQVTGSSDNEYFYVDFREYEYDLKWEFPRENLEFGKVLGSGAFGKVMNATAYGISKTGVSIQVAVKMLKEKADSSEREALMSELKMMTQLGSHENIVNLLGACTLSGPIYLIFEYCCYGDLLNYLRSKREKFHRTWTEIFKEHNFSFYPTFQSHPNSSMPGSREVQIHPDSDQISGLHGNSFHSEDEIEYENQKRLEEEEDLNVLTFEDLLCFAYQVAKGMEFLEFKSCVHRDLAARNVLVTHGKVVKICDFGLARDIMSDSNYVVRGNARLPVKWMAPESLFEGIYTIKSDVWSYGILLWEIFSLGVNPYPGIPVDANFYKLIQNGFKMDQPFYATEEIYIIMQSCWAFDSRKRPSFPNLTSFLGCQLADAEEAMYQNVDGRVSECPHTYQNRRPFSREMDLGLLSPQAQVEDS
FLT3 ITD, sequence (P36888 whole entry, looked up, change not shown): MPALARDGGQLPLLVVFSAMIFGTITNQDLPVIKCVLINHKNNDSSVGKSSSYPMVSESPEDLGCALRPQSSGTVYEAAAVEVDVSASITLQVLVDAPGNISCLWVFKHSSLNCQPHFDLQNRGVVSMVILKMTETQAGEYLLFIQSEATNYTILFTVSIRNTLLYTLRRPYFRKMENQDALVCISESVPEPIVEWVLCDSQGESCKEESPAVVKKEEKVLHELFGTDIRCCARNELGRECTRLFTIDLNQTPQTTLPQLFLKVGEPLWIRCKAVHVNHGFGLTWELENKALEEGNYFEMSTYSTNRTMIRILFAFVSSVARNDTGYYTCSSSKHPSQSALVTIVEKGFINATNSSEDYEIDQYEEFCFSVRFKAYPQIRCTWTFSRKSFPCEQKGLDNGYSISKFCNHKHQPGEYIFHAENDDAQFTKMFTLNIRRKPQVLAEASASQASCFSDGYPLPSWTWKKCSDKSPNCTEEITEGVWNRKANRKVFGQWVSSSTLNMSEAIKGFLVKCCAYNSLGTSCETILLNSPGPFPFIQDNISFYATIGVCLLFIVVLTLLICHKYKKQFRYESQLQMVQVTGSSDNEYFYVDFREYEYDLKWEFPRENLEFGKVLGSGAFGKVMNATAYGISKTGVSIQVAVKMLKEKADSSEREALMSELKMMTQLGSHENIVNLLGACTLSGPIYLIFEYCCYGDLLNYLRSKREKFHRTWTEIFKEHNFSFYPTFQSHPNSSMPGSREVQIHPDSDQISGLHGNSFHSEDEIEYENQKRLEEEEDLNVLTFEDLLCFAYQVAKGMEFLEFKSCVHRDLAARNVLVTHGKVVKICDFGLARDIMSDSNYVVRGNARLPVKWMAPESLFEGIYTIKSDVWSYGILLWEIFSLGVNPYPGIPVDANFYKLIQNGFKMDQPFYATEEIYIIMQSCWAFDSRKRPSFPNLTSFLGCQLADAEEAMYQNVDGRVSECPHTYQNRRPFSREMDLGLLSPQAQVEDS

Cc1ccc(C(=O)Nc2ccc(CN3CCN(C)CC3)c(C(F)(F)F)c2)cc1C#Cc1cnc(N)c2ncccc12 [HSN356, 3-((8-amino-1,7-naphthyridin-5-yl)ethynyl)-4-methyl-N-(4-((4-methylpiperazin-1-yl)methyl)-3-(trifluoromethyl)phenyl)benzamide]
IC50 FLT3 enzymatic inhibition [1]: single digit | IC50 FLT3 ITD enzymatic inhibition [2]: single digit

Cc1ccc(C(=O)Nc2ccc(CN3CCN(C)CC3)c(C(F)(F)F)c2)cc1C#Cc1c(N)ncc2ccc(Cl)cc12 [HSN286]
stability in mouse liver microsomes [3]: preformed much better | FLT3 phosphorylation (Western) [4]: inhibited
